Test: Clearance and half life: pharmacokinetics after IV or PO dosing, plasma measured by LC/MS/MS
Type: in vivo
Conditions: rat; for clearance: clearance from plasma levels (LC/MS/MS, WinNonlin), PEG 400 formulation, route for the table values not stated; for half-life: half life from plasma levels (LC/MS/MS, WinNonlin), route not stated
Experimental: Jugular Vein Cannulation—Animals are anesthetized via IP injection using Ketamine/Xylazine/saline solution (@ 0.25 mL/kg). Animals are weighed prior to dosing of anesthetic to determine proper dosage. Sterile instruments and aseptic technique are used throughout surgery. This includes wearing a mask, clean lab coat or scrubs and sterile gloves. The ventral and dorsal neck areas are shaved and prepped with betadine and alcohol. A small skin incision is made over the jugular vein. Using blunt dissection techniques, free the intended vessel from surrounding tissue and thread two sutures under the vein. Tie the cranial suture, nick the vessel, insert the catheter, and use the distal suture to secure the catheter. Dissect a subcutaneous passage between the catheter insertion point and the intrascapular space; make a small exit hole at the nape of the neck. Then, using hemastats, pull the cannula through the passage to the dorsal neck area. Confirm that the catheter is still properly placed, flush with appropriate heparin/saline solution, and knot the distal end of the cannula. Place a suture tie around the knot, coil the cannula under the skin and close the dorsal incision, leaving the “tie” slightly exposed for ease of externalizing the catheter. Close the ventral incision. The animal should be recovered on a circulating heating blanket or equivalent and returned to its room when it's able to right itself.
Compounds are formulated with polyethylene glycol 400 (PEG) at 30% (IV) or 60% (PO).
Intravenous (IV) dosing is accomplished with a bolus injection into a lateral tail vein. Animals are restrained using a rat restrainer to minimize mis-dosings and to reduce animal stress. Individual doses are calculated based on body weights taken the morning of the dose. Oral (PO) dosing is accomplished by oral gavage using a 3½ inch stainless steel animal feeding tube. Animals are restrained by grasping gently with our hands to reduce animal stress. Individual doses are calculated based on body weights taken the morning of the dose.
Blood (approximately 0.2 mL) is collected from an jugular cannula. For occasions when the jugular cannula fails, blood is removed from the remaining lateral tail vein. The whole blood was placed into Microtainer® tubes containing K2EDTA anticoagulant. Samples are inverted several times to ensure proper mixing with anticoagulant and are stored on ice until centrifugation. Samples are centrifuged at 10,000×g for 5 minutes and plasma is transferred to 1.5 mL microcentrifuge tube. […]
All plasma samples are measured by LC/MS/MS. All pharmacokinetic parameters, clearance (CL), half life (t½), area under curve (AUC) and maximum conc (Cmax) are determined using WinNonin (version 3.2).

clearance	half-life	SMILES
23 mL/min/kg	61 min	O=C(N[C@@H](Cc1ccc(OC(=S)N2CCOCC2)cc1)C(=O)O)c1ccccc1Cl [compound 1]
50 mL/min/kg	6 min	O=C(N[C@@H](Cc1ccc(OC(=O)N2CCOCC2)cc1)C(=O)O)c1ccccc1Cl [referencecarbamate]
